In general, IC50 refers to the midpoint of a concentration-inhibition curve.

Some results are limits rather than exact numbers.

In the experiment the target is KRas G12C (Homo sapiens, UniProt P01116, G12C). The experiment is described as follows: Cellular inhibition of KRas G12C measured by Phospho-ERK in NCI-H358 cells. The experiment is classed as cell-based. Conditions: pERK(Thr202/Tyr204) normalized with GAPDH, NCI-H358 cells, 3 hours; read-out: IC50. The procedure: Cells were plated in poly-D-Lysine coated 96-well plates at a concentration of 50,000 cells/well and allowed to attach for 8-12 hours. Diluted compounds were then added at a final concentration of 0.5% DMSO. After 3 hours, the medium was removed, 150 μL of 4% formaldehyde was added and the plates were incubated for 20 minutes. The plates were washed with PBS, and permeabilized using 150 μL of ice cold 100% methanol for 10 minutes. Non-specific antibody binding to the plates was blocked using 100 μL Licor Blocking Buffer (Li-Cor Biotechnology, Lincoln Nebr.) for 1 hour at room temperature. Positive control samples and samples lacking cells were parallel processed with test samples as standards.
KRas G12C, sequence (P01116 1-188 isoform P01116-2 G12C): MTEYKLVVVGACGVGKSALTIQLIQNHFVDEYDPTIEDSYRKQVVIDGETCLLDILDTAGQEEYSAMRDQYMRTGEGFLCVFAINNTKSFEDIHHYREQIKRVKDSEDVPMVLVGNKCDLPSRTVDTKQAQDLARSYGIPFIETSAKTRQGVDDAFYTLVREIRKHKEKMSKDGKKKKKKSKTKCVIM
The amount Phospho-ERK was determined using an antibody specific for the phosphorylated form of ERK and compared to the amount of GAPDH. […] The plates were incubated for 2 hours at room temperature. The plates were washed with PBS+0.05% Tween 20.
Secondary antibodies used to visualize primary antibodies were added as follows: Anti-rabbit-680 diluted 1:1000 and Anti-mouse-800 diluted 1:1000 in Licor Block+0.05% Tween 20 and incubated for 1 hour at room temperature. The plates were washed with PBS+0.05% Tween 20. A 100 μL aliquot of PBS was added to each well and the plates were read on a LICOR AERIUS plate reader.
The pERK(Thr202/Tyr204) signal was normalized with the GAPDH signal and percent of DMSO control values were calculated. IC50 values were generated using a 4 parameter fit of the dose response curve. Key: “A”≥0.0001-≤1 μM; “B”>1 μM and ND=not determined.
`Cc1cccc(N2CCc3c(nc(OC[C@@H]4CCCN4C)nc3N3CCN(C(=O)/C=C/CN4CCC(F)C4)[C@@H](CC#N)C3)C2)c1C` (stereo partly drawn) [Example 476, 2-[(2S)-4-[7-(2,3-dimethylphenyl)-2-[[(2S)-1-methylpyrrolidin-2-yl]methoxy]-6,8-dihydro-5H-pyrido[3,4-d]pyrimidin-4-yl]-1-[(E)-4-(3-fluoropyrrolidin-1-yl)but-2-enoyl]piperazin-2-yl]acetonitrile]: the IC50 was in the range of 0.1 to 1000 nM. With `C=CC(=O)N1CCN(c2nc(OC[C@H]3CN(C)CCO3)nc3c2CCN(c2cccc4ccccc24)C3)CC1CC#N` (stereo partly drawn) [Example 443, 2-(1-Acryloyl-4-(2-(((R)-4-methylmorpholin-2-yl)methoxy)-7-(naphthalen-1-yl)-5,6,7,8-tetrahydropyrido[3,4-d]pyrimidin-4-yl)piperazin-2-yl)acetonitrile] the figure was 0.1 to 1000 nM. In the case of `C=CC(=O)N1CCN(c2nc(OCCN(C)C)nc3c2CCN(c2cc(O)cc4ccccc24)C3)C[C@@H]1CC#N` [Example 176, 2-[(2S)-4-[2-[2-(dimethylamino)ethoxy]-7-(3-hydroxy-1-naphthyl)-6,8-dihydro-5H-pyrido[3,4-d]pyrimidin-4-yl]-1-prop-2-enoyl-piperazin-2-yl] acetonitrile] it was 0.1 to 1000 nM. In the case of `C=CC(=O)N1CCN(c2nc(OC[C@@H]3CCCN3C)nc3c2CCN(c2cccc(Cl)c2C(F)(F)F)C3)C[C@@H]1CC#N` [Example 428, 2-((S)-1-acryloyl-4-(7-(3-chloro-2-(trifluoromethyl)phenyl)-2-(((S)-1-methylpyrrolidin-2-yl)methoxy)-5,6,7,8-tetrahydropyrido[3,4-d]pyrimidin-4-yl)piperazin-2-yl)acetonitrile] it was 0.1 to 1000 nM. For the compound `C=C(F)C(=O)N1CCN(c2ncnc3c2CCN(c2cncc4cccc(Cl)c24)C3)C[C@@H]1CC#N` [Example 612, (S)-2-(4-(7-(5-chloroisoquinolin-4-yl)-5,6,7,8-tetrahydropyrido[3,4-d]pyrimidin-4-yl)-1-(2-fluoroacryloyl)piperazin-2-yl)acetonitrile], the IC50 was > 1000 nM. In the case of `C=CC(=O)N1CCN(c2nc(OC[C@@H]3CCCN3C)nc3c2CCN(c2cccc4ccccc24)C3)CC1COC` (stereo partly drawn) [Example 256, 1-(2-(methoxymethyl)-4-(2-(((S)-1-methylpyrrolidin-2-yl)methoxy)-7-(naphthalen-1-yl)-5,6,7,8-tetrahydropyrido[3,4-d]pyrimidin-4-yl)piperazin-1-yl)prop-2-en-1-one] it was > 1000 nM; in that of `C=CC(=O)N1CCN(c2nc(OC[C@@H]3CCCN3CC)nc3c2CCN(c2cccc4ccccc24)C3)CC1CC#N` (stereo partly drawn) [Example 233, 2-(1-acryloyl-4-(2-(((S)-1-ethylpyrrolidin-2-yl)methoxy)-7-(naphthalen-1-yl)-5,6,7,8-tetrahydropyrido[3,4-d]pyrimidin-4-yl)piperazin-2-yl)acetonitrile], 0.1 to 1000 nM; in that of `C=C(F)C(=O)N1CCN(c2nc(OC[C@H]3C[C@@H](F)CN3C)nc3c2CCN(c2cccc4cccc(C)c24)C3)C[C@@H]1CC#N` [Example 518, 2-[(2S)-4-[2-[[(2R,4R)-4-fluoro-1-methyl-pyrrolidin-2-yl]methoxy]-7-(8-methyl-1-naphthyl)-6,8-dihydro-5H-pyrido[3,4-d]pyrimidin-4-yl]-1-(2-fluoroprop-2-enoyl)piperazin-2-yl]acetonitrile], 0.1 to 1000 nM. With `C=CC(=O)N1CCN(c2nc(OCCN3CCCC3)nc3c2CCN(c2cc(O)cc4ccccc24)C3)CC1` [Example 85, 1-(4-(7-(3-hydroxynaphthalen-1-yl)-2-(2-(pyrrolidin-1-yl)ethoxy)-5,6,7,8-tetrahydropyrido[3,4-d]pyrimidin-4-yl)piperazin-1-yl)prop-2-en-1-one] the figure was > 1000 nM. Turning to `C=CC(=O)N1CCN(c2nc(OC[C@H]3CCCN3CCO)nc3c2CCN(c2cccc4ccccc24)C3)C[C@@H]1CC#N` [Example 329, 2-[(2S)-4-[2-[[(2R)-1-(2-hydroxyethyl)pyrrolidin-2-yl]methoxy]-7-(1-naphthyl)-6,8-dihydro-5H-pyrido[3,4-d]pyrimidin-4-yl]-1-prop-2-enoyl-piperazin-2-yl]acetonitrile], the IC50 was in the range of 0.1 to 1000 nM. Turning to `C=CC(=O)N1CCN(c2nc(OC[C@@H]3CCCN3C)nc3c2CCN(c2cccc4ccc(Cl)cc24)C3)CC1CC#N` (stereo partly drawn) [Example 253, 2-(1-acryloyl-4-(7-(7-chloronaphthalen-1-yl)-2-(((S)-1-methylpyrrolidin-2-yl)methoxy)-5,6,7,8-tetrahydropyrido[3,4-d]pyrimidin-4-yl)piperazin-2-yl)acetonitrile], the IC50 is 0.1 to 1000 nM. With `C=CC(=O)N1CCN(c2nc(OC[C@@H]3CCCN3C)nc3c2CCN(c2cccc(F)c2F)C3)C[C@@H]1CC#N` [Example 407, 2-((S)-1-acryloyl-4-(7-(2,3-difluorophenyl)-2-(((S)-1-methylpyrrolidin-2-yl)methoxy)-5,6,7,8-tetrahydropyrido[3,4-d]pyrimidin-4-yl)piperazin-2-yl)acetonitrile] the figure was > 1000 nM; with `C=CC(=O)N1CCN(c2nc(OCCCN3C[C@@H]4C[C@H]3CO4)nc3c2CCN(c2cccc4cccc(C)c24)C3)C[C@@H]1CC#N` [Example 369, 2-((S)-4-(2-(3-((1S,4S)-2-oxa-5-azabicyclo[2.2.1]heptan-5-yl)propoxy)-7-(8-methylnaphthalen-1-yl)-5,6,7,8-tetrahydropyrido[3,4-d]pyrimidin-4-yl)-1-acryloylpiperazin-2-yl)acetonitrile], 0.1 to 1000 nM; with `C=CC(=O)N1CCN(c2nc(OC[C@@H]3CCCN3CCO)nc3c2CCN(c2cccc4ccccc24)C3)C[C@@H]1CC#N` [Example 341, 2-((S)-1-acryloyl-4-(2-(((S)-1-(2-hydroxyethyl)pyrrolidin-2-yl)methoxy)-7-(naphthalen-1-yl)-5,6,7,8-tetrahydropyrido[3,4-d]pyrimidin-4-yl)piperazin-2-yl)acetonitrile], 0.1 to 1000 nM. With `C=CC(=O)N1CCN(c2nc(OC[C@@H]3CCCN3C)nc3c2CCN(c2ccncc2C(F)(F)F)C3)CC1CC#N` (stereo partly drawn) [Example 239, 2-(1-acryloyl-4-(2-(((S)-1-methylpyrrolidin-2-yl)methoxy)-7-(3-(trifluoromethyl)pyridin-4-yl)-5,6,7,8-tetrahydropyrido[3,4-d]pyrimidin-4-yl)piperazin-2-yl)acetonitrile] the figure was > 1000 nM; with `C=CC(=O)N1CCN(c2nc(OCCN(C)C)nc3c2CCN(c2cc(O)cc4ccccc24)C3)CC1CC#N` (centres unmarked) [Example 170, 2-(1-acryloyl-4-(2-(2-(dimethylamino)ethoxy)-7-(3-hydroxynaphthalen-1-yl)-5,6,7,8-tetrahydropyrido[3,4-d]pyrimidin-4-yl)piperazin-2-yl)acetonitrile], 0.1 to 1000 nM; with `C=CC(=O)N1CCN(c2nc(OC[C@@H]3CCCN3C)nc3c2CCN(c2cccc(F)c2Cl)C3)C[C@@H]1CC#N` [Example 406, 2-((S)-1-acryloyl-4-(7-(2-chloro-3-fluorophenyl)-2-(((S)-1-methylpyrrolidin-2-yl)methoxy)-5,6,7,8-tetrahydropyrido[3,4-d]pyrimidin-4-yl)piperazin-2-yl)acetonitrile], 0.1 to 1000 nM.

The values above are taken from US10689377B2 (Mirati Therapeutics, Inc., priority 2017, dated 2020).
